This assay deals with T1, fatty acyl CoA:cholesterol acyl transferase (ACAT) (Rattus norvegicus, UniProt O70536).
T1 construct: The supernatant, containing the microsomal fraction, served as the source of the cholesterol-esterifying enzyme; from tissue; host or cells: rat adrenals (supernatant of homogenate, 1,000 x g, containing the microsomal fraction)
T1 sequence (O70536 1-545): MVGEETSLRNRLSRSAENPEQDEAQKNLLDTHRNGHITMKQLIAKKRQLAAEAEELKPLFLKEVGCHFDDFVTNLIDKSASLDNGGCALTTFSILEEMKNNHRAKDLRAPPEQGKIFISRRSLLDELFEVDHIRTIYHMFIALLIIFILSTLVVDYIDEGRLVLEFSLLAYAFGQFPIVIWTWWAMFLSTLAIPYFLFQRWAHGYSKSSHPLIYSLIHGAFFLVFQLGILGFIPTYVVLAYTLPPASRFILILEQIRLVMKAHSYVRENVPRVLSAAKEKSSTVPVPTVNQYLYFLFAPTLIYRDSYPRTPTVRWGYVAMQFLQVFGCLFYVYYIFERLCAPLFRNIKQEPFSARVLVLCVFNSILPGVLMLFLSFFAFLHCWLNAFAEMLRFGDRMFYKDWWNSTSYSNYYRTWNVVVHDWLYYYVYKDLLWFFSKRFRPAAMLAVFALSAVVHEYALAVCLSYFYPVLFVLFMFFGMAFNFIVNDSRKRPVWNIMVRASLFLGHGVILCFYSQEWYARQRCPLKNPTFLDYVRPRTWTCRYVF
Briefly: Inhibition of enzymatic esterification of cholesterol (ACAT), rat adrenal microsomal supernatant. The settings on record: final concentration of the test compound 5.2 μg./ml., 14C-oleoyl CoA, 37° C., read-out: % INHIBITION (percent inhibition of the ACAT enzyme compared to control values). Type of assay: biochemical. On the procedure:
The compounds of the present invention were tested for their ability to inhibit the enzymatic esterification of cholesterol according to the following procedure:
Rat adrenals were homogenized in 0.2M monobasic potassium phosphate buffer, pH 7.4, and centrifuged at 1,000 times gravity for 15 minutes at 5° C. The supernatant, containing the microsomal fraction, served as the source of the cholesterol-esterifying enzyme, fatty acyl CoA:cholesterol acyl transferase (ACAT). A mixture comprising 50 parts of adrenal supernatant, 10 parts of albumin (BSA) (50 mg./ml.), 20 parts of oleoyl CoA (^14 C-0.4 μCi), 3 parts of test compound, and 500 parts of buffer was pre-incubated at 37° C. for 10 minutes. After treatment with 20 parts of oleoyl CoA (^14 C-0.4 μCi), the mixture was incubated at 37° C. for 10 minutes. A control mixture, omitting the test compound, was prepared and treated in the same manner. The lipids from the incubation mixture were extracted into an organic solvent and separated by thin-layer chromatography. The cholesterol ester fraction was counted in a scintillation counter. This procedure is a modification of that described by Hashimoto, et al., Life Scie., 12 (Part II), 1-12 (1973).
The results of this test on representative compounds of this invention appear in Table I. The final concentration of the test compound was 5.2 μg./ml., and effectiveness of the compound is expressed as percent inhibition of the ACAT enzyme compared to control values.

Among the data in patent US4603145A, “Antiatherosclerotic diphenyl alkanamides” (American Cyanamid Company, priority 1983, dated 1986) are inhibition values, retold here.

As a reminder, the inhibition is the percentage by which the read-out fell short of the control.

As to `NC(=O)CC(c1ccc(Cl)cc1)c1ccc(Cl)cc1` [3,3-Bis(p-chlorophenyl)propionamide], the inhibition at 5.2 µg/mL was 31%.
The value for `CCOC(=O)CNC(=O)C=C(c1ccc(Cl)cc1)c1ccc(Cl)cc1` [Ethyl N-[3,3-bis(p-chlorophenyl)acryloyl]glycinate] was 85%; that for `CCCCN(CCCC)C(=O)CC(c1ccc(Cl)cc1)c1ccc(Cl)cc1` [N,N--Di-(n-butyl)-3,3-bis(p-chlorophenyl)propionamide] was 48%.
The value for `CCCCN(CCCC)C(=O)CC(c1ccc(OC)cc1)c1ccc(OC)cc1` [N,N--Di-(n-butyl)-3,3-bis(p-methoxyphenyl)propionamide] was 95%; that for `CCCCN(CCCC)C(=O)CC(c1ccc(C)cc1)c1ccc(C)cc1` [N,N--Di-(n-butyl)-3,3-bis(p-tolyl)propionamide] was 94%.
The result for `O=C(CC(c1ccc(Cl)cc1)c1ccc(Cl)cc1)N(Cc1ccccc1)Cc1ccccc1` [N,N--Dibenzyl-3,3-bis(p-chlorophenyl)propionamide] reads 93%.
Regarding `COc1ccc(C(CC(=O)N(Cc2ccccc2)Cc2ccccc2)c2ccc(OC)cc2)cc1` [N,N--Dibenzyl-3,3-bis(p-methoxyphenyl)propionamide], the inhibition at 5.2 µg/mL amounted to 87%.
The value for `Cc1ccc(C(CC(=O)N(Cc2ccccc2)Cc2ccccc2)c2ccc(C)cc2)cc1` [N,N--Dibenzyl-3,3-bis(p-tolyl)propionamide] was 68%; that for `CN(C)C(=O)CC(c1ccc(Cl)cc1)c1ccc(Cl)cc1` [N,N--Dimethyl-3,3-bis(p-chlorophenyl)propionamide] was 68%.
The result for `O=C(CC(c1ccc(Cl)cc1)c1ccc(Cl)cc1)NC12CC3CC(CC(C3)C1)C2` [N--(1-Adamantyl)-3,3-bis(p-chlorophenyl)propionamide] reads 97%.
With `COc1ccc(C(CC(=O)NC23CC4CC(CC(C4)C2)C3)c2ccc(OC)cc2)cc1` [N--(1-Adamantyl)-3,3-bis(p-methoxyphenyl)propionamide], the inhibition at 5.2 µg/mL was 89%.
The value for `Cc1ccc(C(CC(=O)NC23CC4CC(CC(C4)C2)C3)c2ccc(C)cc2)cc1` [N--(1-Adamantyl)-3,3-bis(p-tolyl)propionamide] was 76%; that for `CCCCNC(=O)CC(c1ccc(Cl)cc1)c1ccc(Cl)cc1` [N--(n-Butyl)-3,3-bis(p-chlorophenyl)propionamide] was 92%.
The value for `O=C(CC(c1ccc(Cl)cc1)c1ccc(Cl)cc1)NCc1ccccc1` [N--Benzyl-3,3-bis(p-chlorophenyl)propionamide] was 35%; that for `CCCCN(Cc1ccccc1)C(=O)CC(c1ccc(Cl)cc1)c1ccc(Cl)cc1` [N--Benzyl-N--(n-butyl)-3,3-bis(p-chlorophenyl)propionamide] was 45%.
With `COc1ccc(C(CC(=O)NCCc2ccc(OC)c(OC)c2)c2ccc(OC)cc2)cc1` [N--[2-(3,4-Dimethoxyphenyl)ethyl]-3,3-bis(p-methoxyphenyl)propionamide], the inhibition at 5.2 µg/mL was 78%.
